Here are results for two molecules from patent US5096817A, “Process for producing antibiotics BU-3608 D and BU-3608 E” (Bristol-Myers Company, priority 1990, dated 1992).

In general, LD50 refers to the dose expected to kill half of the subjects tested. Read a low LD50 as a more toxic substance.

The test system of one data set is Candida albicans A9540. The experiment in a line: in vivo antifungal activity against C. albicans A9540 intravenous infection in mice. More on the design: species or system male ICR mice. To be noted: for Number of survivors/tested: 20th day; for ED50: Candida albicans, A9540, 480 h, intravenous, from survival rates on the 20th day, read-out: PD50 (dose that protects 50% of the animals from infection). On the procedure:
In vivo activity of BU-3608 E was tested against Candida albicans A9540 infection in mice. Test organisms were cultured for 18 hours at 28° C. in YGP medium (yeast extract, glucose, peptone, K2 HPO4, MgSO4) and then suspended in saline. Male ICR mice weighing 20 to 24 g were infected intravenously with about 10 times the median lethal dose of the test fungus. The antibiotic at various dose levels was administered to groups of 5 mice each intravenously just after the fungal infection. The dose that protects 50% of the animals from infection (PD50, mg/kg) was calculated from survival rates recorded on the 20th day after the fungal challenge. All control animals died within 7 to 15 days after infection. The PD50 for BU-3608 D against the same organism and using the same test protocol as described above is 9 mg/kg/inj.

Data set [1] can be described thus: acute toxicity in mice after single intravenous administration. To be noted: mouse, in vivo. On the procedure: The acute toxicity of BU-3608 D was determined in mice after single intraveneous administration.

For `COc1cc(O)c2c(c1)C(=O)c1c(cc3c(c1O)-c1c(cc(C)c(C(=O)NCC(=O)O)c1O)[C@H](O[C@@H]1O[C@H](C)[C@H](N)[C@H](O[C@@H]4OC[C@@H](O)[C@H](O)[C@H]4O)[C@H]1O)[C@H]3O)C2=O` [BU-3608 E], the Number of survivors/tested in the data set on Candida albicans A9540 (1.6 mg/kg/inj. intravenously just after infection) was 0/5; with Candida albicans A9540 (3.1 mg/kg/inj. intravenously just after infection) it was 0/5; in the data set on Candida albicans A9540 (6.3 mg/kg/inj. intravenously just after infection), 1/5; in the data set on Candida albicans A9540 (12.5 mg/kg/inj. intravenously just after infection) it was 4/5; with Candida albicans A9540 (25 mg/kg/inj. intravenously just after infection) it was 5/5; in the data set with Candida albicans A9540 (50 mg/kg/inj. intravenously just after infection), 5/5. Further, in the data set on Candida albicans A9540, the ED50 came out at 8.9 mg/kg.

For `CN[C@@H]1[C@H](O[C@@H]2OC[C@@H](O)[C@H](O)[C@H]2O)[C@@H](O)[C@H](O[C@H]2c3cc(C)c(C(=O)NCC(=O)O)c(O)c3-c3c(cc4c(c3O)C(=O)c3cc(OC)cc(O)c3C4=O)[C@@H]2O)O[C@@H]1C` [BU-3608 D], the ED50 in the data set on Candida albicans A9540 was determined as 9 mg/kg. In data set [1], this molecule had an LD50 of 210 mg/kg.
